Source: US20120027905A1, “POLYENE ANTIFUNGAL COMPOSITIONS” (DSM IP ASSETS B.V., priority 2009, published 2012)

What was measured:
[1] = tested on: Penicillium italicum (ATCC 36041); assay: Antifungal efficacy of natamycin/thickener compositions on wounded oranges (dip treatment); format: in vivo; conditions: after 23 days of storage at room temperature; 0.2% (w/v) thickening agent, 1000 μg/ml natamycin; dipped one minute, P. italicum
Procedure: In a further experiment the antifungal activity of antimicrobial compositions comprising 1000 μg/ml natamycin and 0.2% (w/v) of the thickening agents described above was examined on oranges. The oranges were obtained from a local retailer in The Netherlands. The oranges were treated with spores of the mould Penicillium italicum (ATCC 36041). The mould spores were obtained using well-known methods. The oranges were injured according to the method described by Lapere de Bellaire and Dubois (see Plant disease 81:1378-1383, ([…])). Oranges were wounded three times using a cork borer followed by contamination per wound with 5 μl of a P. italicum spore suspension containing 10^6 spores/ml. After incubation for 1 hour at room temperature, the oranges were dipped for one minute into the freshly prepared antimicrobial compositions, dripped off and dried to the air. The experiment was executed in ninefold. The oranges were stored for 23 days under the conditions as described above and were judged visually on mould development.

[2] = tested on: most fungi; conditions: for most fungi; cited from earlier work
[3] = tested on: Aspergillus ochraceus (ATCC 60532); assay: Antifungal efficacy of natamycin/thickener compositions on fresh coffee beans; format: in vivo; conditions: after 4 days of storage at room temperature; 0.6% (w/v) thickening agent, 1000 μg/ml natamycin; A. ochraceus
Procedure: In this experiment the antifungal activity of the antimicrobial compositions comprising natamycin and the above-mentioned thickening agents was examined on fresh coffee beans. Compositions containing thickening agents and the antifungal agent natamycin were prepared as described in Example 1. The compositions comprised a final concentration of 0.6% (w/v) thickening agent and 1000 μg/ml natamycin. Fresh untreated coffee beans from a local retailer in The Netherlands were artificially contaminated with 5 μl of a freshly prepared concentrated suspension of spores (10^6 spores/mil) of the mould Aspergillus ochraceus (ATCC 60532). The mould spores were prepared using well-known methods. One hour after contamination the coffee beans were dipped for one minute into the freshly prepared antimicrobial compositions, dripped off and dried to the air. The experiment was executed in ninefold. The coffee beans were stored for 4 days under the conditions as described in Example 1 and were judged visually on mould development.

[4] = tested on: Botrytis cinerea (ATCC 12481); assay: Antifungal efficacy of natamycin/thickener compositions on strawberries; format: in vivo; conditions: after 6 days of storage at room temperature; 0.6% (w/v) thickening agent, 1000 μg/ml natamycin; B. cinerea
Procedure: In this experiment the antifungal activity of antimicrobial compositions comprising natamycin and the above-mentioned thickening agents was examined on strawberries. Compositions containing thickening agents and the antifungal agent natamycin were prepared as described in Example 1. The compositions comprised a final concentration of 0.6% (w/v) thickening agent and 1000 μg/ml natamycin. Fresh untreated strawberries from a local retailer in The Netherlands were artificially contaminated with 5 μl of a freshly prepared concentrated suspension of spores (10^6 spores/ml) of the mould species Botrytis cinerea (ATCC 12481). The mould spores were prepared using well-known methods. One hour after contamination the strawberries were dipped for one minute into the freshly prepared antimicrobial compositions, dripped off and dried to the air. The experiment was executed in ninefold. The strawberries were stored for 6 days under the conditions as described in Example 1 and were judged visually on mould development.

[5] = cited from earlier work

C[C@@H]1C/C=C/C=C/C=C/C=C/[C@H](O[C@@H]2O[C@H](C)[C@@H](O)[C@H](N)[C@@H]2O)C[C@@H]2O[C@](O)(C[C@@H](O)C[C@H]3O[C@@H]3/C=C/C(=O)O1)C[C@H](O)[C@H]2C(=O)O [Natamycin, natamycin]
Moulded orange wounds (total amount of wounds is 9) [1]: 9 | MIC (Minimal Inhibitory Concentration) [2]: less than 10 mg/l | Moulded coffee beans of the total of 9 [3]: 9 | Moulded strawberries of the total of 9 [4]: 6 | solubility in water [5]: 30 to 50 µg/mL
